Test results: ChEMBL document CHEMBL3856191, “Structural modifications at the 6-position of thieno[2,3-d]pyrimidines and their effects on potency at FLT3 for treatment of acute myeloid leukemia” (Eur J Med Chem, 2016)

What was measured:
[1] = Metabolic stability in human liver microsomes assessed as compound remaining at 1 uM after 30 mins in presence of NADPH by HPLC-MS analysis; format: ADME; settings: read-out: Stability
[2] = Metabolic stability in rat liver microsomes assessed as compound remaining at 1 uM after 30 mins in presence of NADPH by HPLC-MS analysis; format: ADME; settings: for remaining at 0.5 h, 1 µM: liver microsomes, read-out: Stability
[3] = target: Receptor-type tyrosine-protein kinase FLT3 (Homo sapiens, UniProt P36888, D835Y)
Description: Inhibition of human FLT3 D835Y mutant preincubated for 15 mins followed by poly(Glu:Tyr) substrate addition for 30 mins in presence of [gamma-32P]ATP by TR-FRET assay

[4] = target: T1, Receptor-type tyrosine-protein kinase FLT3 (Homo sapiens, UniProt P36888); assay: biochemical; format: cell-based, Sf21
T1 sequence (P36888 whole entry): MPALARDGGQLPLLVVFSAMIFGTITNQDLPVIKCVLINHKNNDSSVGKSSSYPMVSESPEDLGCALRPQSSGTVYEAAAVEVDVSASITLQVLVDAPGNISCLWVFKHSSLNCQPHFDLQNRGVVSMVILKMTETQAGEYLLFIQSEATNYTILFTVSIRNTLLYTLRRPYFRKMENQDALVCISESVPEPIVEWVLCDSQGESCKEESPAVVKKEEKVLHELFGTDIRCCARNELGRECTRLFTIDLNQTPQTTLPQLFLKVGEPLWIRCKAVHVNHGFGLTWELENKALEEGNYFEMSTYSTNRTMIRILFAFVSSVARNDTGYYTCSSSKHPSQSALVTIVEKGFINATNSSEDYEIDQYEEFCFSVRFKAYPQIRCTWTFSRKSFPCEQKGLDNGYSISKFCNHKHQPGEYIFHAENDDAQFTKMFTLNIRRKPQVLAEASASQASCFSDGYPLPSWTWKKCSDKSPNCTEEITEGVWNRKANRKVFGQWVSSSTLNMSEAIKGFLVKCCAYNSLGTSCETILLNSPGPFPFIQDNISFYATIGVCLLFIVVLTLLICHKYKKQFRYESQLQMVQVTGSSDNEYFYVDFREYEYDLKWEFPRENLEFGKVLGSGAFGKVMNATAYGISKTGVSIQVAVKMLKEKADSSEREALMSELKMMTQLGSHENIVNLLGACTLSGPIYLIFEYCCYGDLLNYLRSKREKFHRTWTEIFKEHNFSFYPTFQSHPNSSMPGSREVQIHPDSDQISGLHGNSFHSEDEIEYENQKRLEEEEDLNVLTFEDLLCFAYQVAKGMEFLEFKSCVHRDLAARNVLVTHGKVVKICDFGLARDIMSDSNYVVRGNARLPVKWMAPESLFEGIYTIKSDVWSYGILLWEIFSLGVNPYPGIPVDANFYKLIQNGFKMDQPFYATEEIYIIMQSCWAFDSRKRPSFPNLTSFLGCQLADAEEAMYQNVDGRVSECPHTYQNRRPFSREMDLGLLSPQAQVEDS
Description: Inhibition of recombinant human FLT3 expressed in insect Sf21 cells preincubated for 15 mins followed by poly(Glu:Tyr) substrate addition for 30 mins in presence of [gamma-32P]ATP by TR-FRET assay

cells [5] = settings: Homo sapiens, MV4-11, 48 h
Description: Growth inhibition of human MV4-11 cells expressing FLT3-ITD after 48 hrs by XTT assay

cells [6] = settings: Homo sapiens, HL-60, 48 h
Description: Growth inhibition of human HL60 cells expressing wild type FLT-3 after 48 hrs by XTT assay

cells [7] = settings: Homo sapiens, K562, 48 h
Description: Growth inhibition of human K562 cells after 48 hrs by XTT assay

cells [8] = settings: Homo sapiens, THP-1, 48 h
Description: Growth inhibition of human THP1 cells expressing wild type FLT-3 after 48 hrs by XTT assay

Angiopoietin-1 receptor = Angiopoietin-1 receptor (Homo sapiens, UniProt Q02763); assay: Inhibition of human TIE2 assessed as remaining activity at 10 uM preincubated for 15 mins followed by substrate addition measured after 30 mins in presence of [gamma-32P]ATP by […] assay
[9] = target: Tyrosine-protein kinase ABL1 (Homo sapiens, UniProt P00519); assay: Inhibition of recombinant human ABL1 expressed in insect cells assessed as remaining activity at 10 uM preincubated for 15 mins followed by poly(Glu:Tyr) substrate addition for 30 mins in presence of [gamma-32P]ATP by […] assay
Sequence of Tyrosine-protein kinase ABL1 (P00519 whole entry): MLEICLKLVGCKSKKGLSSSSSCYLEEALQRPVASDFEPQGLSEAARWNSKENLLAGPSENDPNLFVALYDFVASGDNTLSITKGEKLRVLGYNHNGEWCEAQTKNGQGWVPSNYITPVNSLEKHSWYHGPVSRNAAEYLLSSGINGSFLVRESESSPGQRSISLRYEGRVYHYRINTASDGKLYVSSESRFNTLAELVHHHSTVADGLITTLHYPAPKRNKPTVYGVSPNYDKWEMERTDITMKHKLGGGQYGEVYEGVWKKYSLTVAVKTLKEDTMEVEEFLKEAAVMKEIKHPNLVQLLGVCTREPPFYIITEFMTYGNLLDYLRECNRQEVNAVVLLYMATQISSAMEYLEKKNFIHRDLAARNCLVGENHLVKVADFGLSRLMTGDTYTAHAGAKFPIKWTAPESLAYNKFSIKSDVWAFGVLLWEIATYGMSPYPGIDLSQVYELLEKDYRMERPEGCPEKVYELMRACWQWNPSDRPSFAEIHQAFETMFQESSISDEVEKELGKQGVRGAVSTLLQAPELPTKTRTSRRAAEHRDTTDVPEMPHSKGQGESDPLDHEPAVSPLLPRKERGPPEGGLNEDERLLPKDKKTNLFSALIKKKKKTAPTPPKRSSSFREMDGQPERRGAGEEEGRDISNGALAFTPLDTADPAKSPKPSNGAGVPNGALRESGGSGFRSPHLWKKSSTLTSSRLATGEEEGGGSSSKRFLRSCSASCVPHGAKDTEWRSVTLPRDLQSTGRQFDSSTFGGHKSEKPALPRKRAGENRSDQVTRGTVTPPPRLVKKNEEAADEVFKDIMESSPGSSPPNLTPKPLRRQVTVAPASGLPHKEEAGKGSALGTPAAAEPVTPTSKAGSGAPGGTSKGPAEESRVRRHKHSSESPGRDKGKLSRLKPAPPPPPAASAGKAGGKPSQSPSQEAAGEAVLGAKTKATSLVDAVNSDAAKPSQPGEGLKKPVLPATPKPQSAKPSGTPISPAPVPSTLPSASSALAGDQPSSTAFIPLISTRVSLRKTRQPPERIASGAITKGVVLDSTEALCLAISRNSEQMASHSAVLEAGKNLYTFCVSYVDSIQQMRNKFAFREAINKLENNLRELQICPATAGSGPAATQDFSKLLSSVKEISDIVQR

Sequence of Angiopoietin-1 receptor (Q02763 whole entry): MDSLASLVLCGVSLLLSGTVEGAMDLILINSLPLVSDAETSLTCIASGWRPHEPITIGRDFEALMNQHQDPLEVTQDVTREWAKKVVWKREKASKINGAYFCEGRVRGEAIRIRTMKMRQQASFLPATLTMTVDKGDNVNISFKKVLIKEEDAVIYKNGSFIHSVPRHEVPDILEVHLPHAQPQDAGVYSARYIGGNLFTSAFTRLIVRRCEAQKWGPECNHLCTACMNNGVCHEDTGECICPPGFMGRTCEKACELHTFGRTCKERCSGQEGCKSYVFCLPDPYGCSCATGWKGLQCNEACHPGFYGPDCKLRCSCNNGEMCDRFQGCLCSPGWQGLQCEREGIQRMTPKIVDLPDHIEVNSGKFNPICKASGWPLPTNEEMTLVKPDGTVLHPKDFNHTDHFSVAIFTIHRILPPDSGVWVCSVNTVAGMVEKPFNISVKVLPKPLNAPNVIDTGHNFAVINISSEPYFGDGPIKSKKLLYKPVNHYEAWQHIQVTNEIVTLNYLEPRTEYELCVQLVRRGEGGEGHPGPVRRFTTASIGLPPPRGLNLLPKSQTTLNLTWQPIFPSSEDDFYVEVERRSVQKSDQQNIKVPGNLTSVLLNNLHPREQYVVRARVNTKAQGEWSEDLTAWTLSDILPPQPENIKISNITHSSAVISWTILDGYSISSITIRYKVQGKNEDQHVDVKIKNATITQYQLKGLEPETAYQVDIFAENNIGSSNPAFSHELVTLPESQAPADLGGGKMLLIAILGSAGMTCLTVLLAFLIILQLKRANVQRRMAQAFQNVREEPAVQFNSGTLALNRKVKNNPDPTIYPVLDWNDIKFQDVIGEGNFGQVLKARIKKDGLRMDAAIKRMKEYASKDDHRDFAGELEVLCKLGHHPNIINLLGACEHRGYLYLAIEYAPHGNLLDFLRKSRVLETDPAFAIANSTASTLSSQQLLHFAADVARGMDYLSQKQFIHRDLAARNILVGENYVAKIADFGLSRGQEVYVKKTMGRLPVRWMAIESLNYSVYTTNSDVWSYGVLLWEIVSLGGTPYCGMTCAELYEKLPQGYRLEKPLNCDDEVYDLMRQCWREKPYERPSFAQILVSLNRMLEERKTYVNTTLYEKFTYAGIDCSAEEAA

With `CC1=CC(=O)N(Nc2nc(-c3cccs3)nc3sc(-c4ccc(O)cc4)c(C)c23)C1=O` as the compound, how does the remaining at 0.5 h, 1 µM [1] read?
Its remaining at 0.5 h, 1 µM is 71.8%.

What about the remaining at 0.5 h, 1 µM [2] of the same compound?
The remaining at 0.5 h, 1 µM was 28.8%.

Which IC50 [3] does the source give for `CC1=CC(=O)N(Nc2nc(-c3cccs3)nc3sc(-c4ccc(OCCNCc5ccccc5)cc4)c(C)c23)C1=O` here?
Its IC50 is 0.00948 µM.

What about the remaining at 0.5 h, 1 µM [1] of the same compound?
The remaining at 0.5 h, 1 µM was 86.2%.

And the IC50 [4]?
Its IC50 is 0.0719 µM.

And the remaining at 0.5 h, 1 µM [2]?
The remaining at 0.5 h, 1 µM was 30.4%.

Which IC50 [3] does the source give for `CC1=CC(=O)N(Nc2nc(-c3cccs3)nc3sc(-c4ccc(OCCNCCC#N)cc4)c(C)c23)C1=O` here?
Its IC50 is 0.0294 µM.

What about the remaining at 0.5 h, 1 µM [1] of the same compound?
The remaining at 0.5 h, 1 µM was 52%.

What about the IC50 [4] of the same compound?
The IC50 was 0.191 µM.

What about the remaining at 0.5 h, 1 µM [2] of the same compound?
Its remaining at 0.5 h, 1 µM is 32.1%.

With `CC1=CC(=O)N(Nc2nc(-c3cccs3)nc3sc(-c4ccc(F)cc4)c(C)c23)C1=O` as the compound, how does the remaining at 0.5 h, 1 µM [1] read?
The remaining at 0.5 h, 1 µM was 39.5%.

What about the remaining at 0.5 h, 1 µM [2] of the same compound?
Its remaining at 0.5 h, 1 µM is 54.5%.

With `CC1=CC(=O)N(Nc2nc(-c3cccs3)nc3sc(-c4ccc(OCCNCC(C)C)cc4)c(C)c23)C1=O` as the compound, how does the GI50 (cells [5]) read?
The GI50 was 0.278 µM.

And the GI50 (cells [6])?
The GI50 was 0.598 µM.

And the IC50 [3]?
Its IC50 is 0.0359 µM.

And the remaining at 0.5 h, 1 µM [1]?
Its remaining at 0.5 h, 1 µM is 66.2%.

And the GI50 (cells [7])?
Its GI50 is 0.489 µM.

And the GI50 (cells [8])?
Its GI50 is 0.449 µM.

What about the IC50 [4] of the same compound?
The IC50 was 0.0025 µM.

What about the remaining at 0.5 h, 1 µM [2] of the same compound?
Its remaining at 0.5 h, 1 µM is 39.7%.

What does the source list for `COc1ccc(-c2cc3c(NN4C(=O)C=C(C)C4=O)nc(-c4cccs4)nc3s2)cc1`?
GI50 (cells [5]): 1.7 µM; GI50 (cells [6]): 0.682 µM; IC50 [3]: 0.0471 µM; GI50 (cells [7]): 1.09 µM; GI50 (cells [8]): 1.27 µM; IC50 [4]: 0.0686 µM

For `CC1=CC(=O)N(Nc2nc(-c3cccs3)nc3sc(-c4ccc(OCCN5CCCC5)cc4)c(C)c23)C1=O`, which GI50 (cells [5]) is on record?
Its GI50 is 0.585 µM.

What about the GI50 (cells [6]) of the same compound?
Its GI50 is 1.26 µM.

What about the IC50 [3] of the same compound?
The IC50 was 0.0165 µM.

And the remaining at 0.5 h, 1 µM [1]?
Its remaining at 0.5 h, 1 µM is 72.7%.

And the GI50 (cells [7])?
Its GI50 is 1.04 µM.

And the GI50 (cells [8])?
The GI50 was 0.636 µM.

What about the IC50 [4] of the same compound?
The IC50 was 0.00643 µM.

What about the remaining at 0.5 h, 1 µM [2] of the same compound?
The remaining at 0.5 h, 1 µM was 41.5%.

Which results are given for `CC1=CC(=O)N(Nc2nc(-c3cccs3)nc3sc(-c4ccc(OCc5ccc(F)cc5)cc4)c(C)c23)C1=O`?
remaining at 0.5 h, 1 µM [1]: 66.9%; remaining at 0.5 h, 1 µM [2]: 35.6%

With `CC1=CC(=O)N(Nc2nc(-c3cccs3)nc3sc(-c4ccc(F)cc4)cc23)C1=O` as the compound, how does the IC50 [3] read?
Its IC50 is 0.0544 µM.

What about the remaining at 0.5 h, 1 µM [1] of the same compound?
Its remaining at 0.5 h, 1 µM is 61%.

What about the IC50 [4] of the same compound?
The IC50 was 0.124 µM.

What about the remaining at 0.5 h, 1 µM [2] of the same compound?
Its remaining at 0.5 h, 1 µM is 26.9%.

For `CC1=CC(=O)N(Nc2nc(-c3cccs3)nc3sc(-c4ccc(OCC5CCCO5)cc4)c(C)c23)C1=O` (stereo not given), which remaining at 0.5 h, 1 µM [1] is on record?
Its remaining at 0.5 h, 1 µM is 41.7%.

What about the remaining at 0.5 h, 1 µM [2] of the same compound?
The remaining at 0.5 h, 1 µM was 41%.

With `CC1=CC(=O)N(Nc2nc(-c3cccs3)nc3sc(-c4ccc(OC5CCNC5)cc4)c(C)c23)C1=O` (stereo not given) as the compound, how does the GI50 (cells [5]) read?
The GI50 was 0.366 µM.

What about the Activity (Angiopoietin-1 receptor) of the same compound?
Its Activity is 25%.

And the GI50 (cells [6])?
The GI50 was 0.214 µM.

What about the IC50 [3] of the same compound?
The IC50 was 0.0293 µM.

What about the remaining at 0.5 h, 1 µM [1] of the same compound?
The remaining at 0.5 h, 1 µM was 50.8%.

What about the GI50 (cells [7]) of the same compound?
The GI50 was 0.315 µM.

What about the GI50 (cells [8]) of the same compound?
Its GI50 is 0.227 µM.

And the IC50 [4]?
The IC50 was 0.00377 µM.

And the remaining at 0.5 h, 1 µM [2]?
The remaining at 0.5 h, 1 µM was 34.2%.

And the Activity [9]?
Its Activity is 26%.

With `CC1=CC(=O)N(Nc2nc(-c3cccs3)nc3sc(-c4ccc(OC5CCNCC5)cc4)c(C)c23)C1=O` as the compound, how does the GI50 (cells [5]) read?
The GI50 was 0.58 µM.

And the GI50 (cells [6])?
The GI50 was 0.377 µM.

What about the IC50 [3] of the same compound?
The IC50 was 0.0272 µM.

What about the remaining at 0.5 h, 1 µM [1] of the same compound?
The remaining at 0.5 h, 1 µM was 52.4%.

And the GI50 (cells [7])?
Its GI50 is 0.425 µM.

What about the GI50 (cells [8]) of the same compound?
The GI50 was 0.46 µM.

What about the IC50 [4] of the same compound?
Its IC50 is 0.0314 µM.

And the remaining at 0.5 h, 1 µM [2]?
Its remaining at 0.5 h, 1 µM is 47.8%.

What does the source list for `CC1=CC(=O)N(Nc2nc(-c3cccs3)nc3sc(CO)c(C)c23)C1=O`?
remaining at 0.5 h, 1 µM [1]: 24.6%; remaining at 0.5 h, 1 µM [2]: 20.4%

For `CC1=CC(=O)N(Nc2nc(-c3cccs3)nc3sc(-c4ccc(OCCNCCO)cc4)c(C)c23)C1=O.Cl`, which GI50 (cells [5]) is on record?
The GI50 was 1.13 µM.

And the GI50 (cells [6])?
The GI50 was 1.34 µM.

What about the IC50 [3] of the same compound?
Its IC50 is 0.000334 µM.

And the remaining at 0.5 h, 1 µM [1]?
The remaining at 0.5 h, 1 µM was 91.3%.

What about the GI50 (cells [7]) of the same compound?
Its GI50 is 1.41 µM.

And the GI50 (cells [8])?
Its GI50 is 0.843 µM.

And the IC50 [4]?
Its IC50 is 0.00531 µM.

And the Stability ([2]; microsomes, 0.5 h, 1 µM)?
Its Stability is “Nd(Unstable)”.

Which GI50 (cells [5]) does the source give for `CC1=CC(=O)N(Nc2nc(-c3cccs3)nc3sc(C)c(C)c23)C1=O` here?
The GI50 was 0.191 µM.

And the Activity (Angiopoietin-1 receptor)?
The Activity was 32%.

What about the GI50 (cells [6]) of the same compound?
The GI50 was 0.127 µM.

And the IC50 [3]?
The IC50 was 0.0137 µM.

What about the remaining at 0.5 h, 1 µM [1] of the same compound?
Its remaining at 0.5 h, 1 µM is 32.4%.

What about the GI50 (cells [7]) of the same compound?
The GI50 was 0.105 µM.

What about the GI50 (cells [8]) of the same compound?
The GI50 was 0.222 µM.

And the IC50 [4]?
The IC50 was 0.0114 µM.

And the remaining at 0.5 h, 1 µM [2]?
Its remaining at 0.5 h, 1 µM is 22.7%.

And the Activity [9]?
Its Activity is 29%.

Which results are given for `CC1=CC(=O)N(Nc2nc(-c3cccs3)nc3sc(C#N)c(C)c23)C1=O`?
IC50 [3]: 0.075 µM; remaining at 0.5 h, 1 µM [1]: 52.7%; IC50 [4]: 0.118 µM; remaining at 0.5 h, 1 µM [2]: 26.1%

Which results are given for `CC1=CC(=O)N(Nc2nc(-c3cccs3)nc3sc(C)cc23)C1=O`?
GI50 (cells [5]): 1.05 µM; GI50 (cells [6]): 0.422 µM; IC50 [3]: 0.0147 µM; remaining at 0.5 h, 1 µM [1]: 58.8%; GI50 (cells [7]): 1.01 µM; GI50 (cells [8]): 1.24 µM; IC50 [4]: 0.0168 µM; remaining at 0.5 h, 1 µM [2]: 32.6%

Which results are given for `CC1=CC(=O)N(Nc2nc(-c3cccs3)nc3sc(-c4ccc(O)cc4)cc23)C1=O`?
GI50 (cells [5]): 0.927 µM; GI50 (cells [6]): 0.336 µM; IC50 [3]: 0.0787 µM; remaining at 0.5 h, 1 µM [1]: 74.1%; GI50 (cells [7]): 0.506 µM; GI50 (cells [8]): 0.765 µM; IC50 [4]: 0.0755 µM; remaining at 0.5 h, 1 µM [2]: 28.2%
